Results on 11 molecules are retold here after US5767142A, “Trisbenzimidazoles useful as topoisomerase I inhibitors” (Rutgers, The State University of New Jersey, priority 1996, dated 1998).

The subject of data set [1] is human lymphoblast RPMI 8402 cells. Nature of the data set: MTT cytotoxicity assay, RPMI 8402. In kind it is cell-based. The settings on record: for IC50: Homo sapiens, RPMI 8402, 96 h, read-out: Cytotoxicity IC50, RPMI. On the procedure: (§1) The cytotoxicity was determined using the as MTT-microtiter plate tetrazolinium cytotoxicity assay (MTA) following the procedures of F. Denizot et al., J. Immunol. […] The cytotoxicity assay was performed using 96-well microtiter plates. Cells were grown in suspension at 37° C. in 5% CO2 and maintained by regular passage in RPMI medium supplemented with 10% heat inactivated fetal bovine serum, L-glutamine (2 mM), penicillin (100 U/ml), and streptomycin (0.1 mg/ml). For determination of IC50, cells were exposed continuously with varying concentrations of drug concentrations and MTT assays were performed at the end of the fourth day.

Data set [2] concerns CPT-K5 cells (camptothecin-resistant variant of RPMI 8402). Nature of the data set: MTT cytotoxicity assay, camptothecin-resistant CPT-K5. The settings on record: Homo sapiens, CPT-K5, 96 h, read-out: Cytotoxicity IC50, CPT-K5. The data set is classed as cell-based, human. The method, then:
as §1
On the technique in general: Tetrazolium assays rely on reduction of a dye to a coloured formazan, in cell work by metabolically active cells.

The subject of the next data set is mammalian tumor cells. The data set can be described thus: Cytotoxicity to tumor cells, general statement. The settings on record: cell line not specified. In kind it is cell-based.
The target of data set [3] is T1, calf thymus topoisomerase I (Bos taurus, UniProt A0AAA9TV68).
T1 construct: plasmid YEpG DNA cleavage assay
T1 sequence (A0AAA9TV68 2-769): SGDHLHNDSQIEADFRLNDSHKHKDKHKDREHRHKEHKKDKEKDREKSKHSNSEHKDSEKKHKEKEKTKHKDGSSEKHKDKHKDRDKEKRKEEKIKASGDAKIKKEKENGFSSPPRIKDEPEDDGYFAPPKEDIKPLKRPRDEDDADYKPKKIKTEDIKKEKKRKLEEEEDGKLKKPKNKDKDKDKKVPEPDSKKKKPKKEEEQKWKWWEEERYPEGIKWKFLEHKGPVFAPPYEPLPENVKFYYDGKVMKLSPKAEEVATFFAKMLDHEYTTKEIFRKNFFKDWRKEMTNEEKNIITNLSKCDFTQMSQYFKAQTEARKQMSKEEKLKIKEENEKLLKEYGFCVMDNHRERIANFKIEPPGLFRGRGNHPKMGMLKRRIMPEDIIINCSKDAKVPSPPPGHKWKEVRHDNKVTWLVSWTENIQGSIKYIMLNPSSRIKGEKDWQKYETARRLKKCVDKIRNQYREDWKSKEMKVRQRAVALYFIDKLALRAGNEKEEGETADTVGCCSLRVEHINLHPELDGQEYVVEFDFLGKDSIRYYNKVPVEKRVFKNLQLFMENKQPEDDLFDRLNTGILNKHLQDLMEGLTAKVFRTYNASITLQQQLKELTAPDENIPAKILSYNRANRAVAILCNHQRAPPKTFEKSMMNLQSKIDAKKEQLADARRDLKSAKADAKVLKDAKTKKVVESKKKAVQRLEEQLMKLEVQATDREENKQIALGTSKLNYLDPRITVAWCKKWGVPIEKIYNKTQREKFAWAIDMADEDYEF
Nature of the data set: Topoisomerase I-mediated DNA cleavage assay (calf thymus topoisomerase I, plasmid YEpG). In kind it is biochemical. From the text: DNA topoisomerase I was purified from calf thymus gland as reported previously by B. D. Halligan et al., J. Biol. Chem., 260, 2475 (1985). Plasmid YEpG was also purified by the alkali lysis method followed by phenol deproteination and CsCl/ethidium isopycnic centrifugation as described by T. Mariatis et al., Molecular Cloning, A Laboratory Manual, Cold Spring Harbor Labs, NY (1982) at pages 149-185. The end-labeling of the plasmid was accomplished as previously described by L. F. Liu et al., J. Biol. Chem., 258, 15365 (1983). The cleavage assays were performed as previously reported by A. Y. Chen et al., Cancer Res., 53, 1332 (1993). Human topoisomerase was isolated as a recombinant fusion protein using a T7 expression system.
^b Topoisomerase I cleavage values are reported as REC, Relative
Effective Concentration, i.e. concentrations relative to Hoechst 33342,
whose value is arbitrarily assumed as 1, that are able to produce the sam
cleavage on the plasmid DNA in the presence of calf thymus topoisomerase
I. Cleavage is calculated from the intensity of the strongest Hoechst

In data set [4] the test system is KBV-1 cells (multidrug-resistant variant of KB3-1, overexpress MDR1). Nature of the data set: MTT cytotoxicity assay, multidrug-resistant KBV-1. In kind it is cell-based, human. The settings on record: Homo sapiens, KB-V1, 96 h; 4 days continuous drug exposure; read-out: Cytotoxicity IC50, KBV-1. The method, then:
as §1
(§2) These cells were grown as monolayer cultures at in 5% CO2 and maintained by regular passage in Dulbecco's minimal essential medium supplemented with 10% heat inactivated fetal bovine serum. KBV-1 cells were similarly maintained except they were grown in the presence of 1 μg/ml vinblastine.

In the next data set the test system is fungi. The data set can be described thus: Antifungal activity.
The test system of data set [5] is human epidermoid carcinoma KB3-1 cell line. Nature of the data set: MTT cytotoxicity assay, KB3-1. The data set is classed as cell-based. The settings on record: KB 3-1, 96 h, 4 days continuous drug exposure. The method, then:
as §1, §2

The subject of data set [6] is CPT-K5 cells (camptothecin-resistant variant of RPMI 8402). The settings on record: as reported by A. Y. Chen et al., Cancer Res., 53, 1332 (1993); cited from earlier work.
[7] abbreviates: 4 days continuous drug exposure.

Each structure is given as a SMILES string. Where two headings read alike, the source gives them in different places. Where only a bound is given, the exact number is not on record here.

For the molecule `c1ccc2[nH]c(-c3ccc4[nH]c(-c5ccc6[nH]cnc6c5)nc4c3)nc2c1` [Compound 10, 2-[2'-(Benzimidazol-5"-yl)benzimidazol-5'-yl]benzimidazole], in data set [1], the “Cytotoxicity towards RPMI 8402 (in words)” value was “failed to exhibit significant cytotoxicity” and the IC50 was 14000 nM. In addition, the IC50 in data set [2] worked out at 28000 nM.

For the molecule `N#Cc1ccc2[nH]c(-c3ccc4[nH]c(-c5ccc6[nH]cnc6c5)nc4c3)nc2c1` [Compound 11, 5-Cyano-2-[2'-(benzimidazol-5"-yl)benzimidazol-5'-yl]benzimidazole], the “Cytotoxicity towards RPMI 8402 (in words)” value in data set [1] is “failed to exhibit significant cytotoxicity”. The concentration for half-maximal inhibition (IC50) in data set [1] (setting [7]) and in data set [2] (setting [7]) was over 25000 nM each time.

Regarding `CCCc1ccc2nc(-c3ccc4nc(-c5ccc6nc[nH]c6c5)[nH]c4c3)[nH]c2c1` [Compound 12, 5-Propyl-2-[2'-(benzimidazol-5"-yl)benzimidazol-5'-yl]benzimidazole], in the data set on mammalian tumor cells, the “Cytotoxicity to tumor cells (in words)” value is given as “weak cytotoxicity”. Also, the “Potency as topoisomerase I inhibitor (in words)” value in data set [3] is recorded as “much less active than either 10, 11, or 13 as an inhibitor of topoisomerase I”. The concentration for half-maximal inhibition (IC50) in data set [1] (setting [7]) is 7600 nM; in data set [2] (setting [7]), 20000 nM.

As to `c1ccc(-c2ccc3nc(-c4ccc5nc(-c6ccc7nc[nH]c7c6)[nH]c5c4)[nH]c3c2)nc1` [Compound 14, 5-(2-Pyridyl)-2-[2'-(benzimidazol-5"-yl)benzimidazol-5'-yl]benzimidazole], the half-maximal inhibitory concentration (IC50) in data set [4] came out at 90 nM; in data set [1] (setting [7]) it was 160 nM; in data set [5], 50 nM; in data set [2], 5800 nM. Also, in the data set with fungi, the “Antifungal activity (in words)” value is “exhibits antifungal activity”.

Consider `c1cncc(-c2ccc3nc(-c4ccc5nc(-c6ccc7nc[nH]c7c6)[nH]c5c4)[nH]c3c2)c1` [Compound 15, 5-(3-Pyridyl)-2-[2'-(benzimidazol-5"-yl)benzimidazol-5'-yl]benzimidazole], for which the “Cytotoxicity to tumor cells (in words)” value with mammalian tumor cells is “somewhat more active than the 2-pyridyl derivative, 14, as topoisomerase I inhibitors as well as cytotoxic agents”. Moreover, the “Potency as topoisomerase I inhibitor (in words)” value in data set [3] was “somewhat more active than the 2-pyridyl derivative, 14, as topoisomerase I inhibitors”. Also, the 50% inhibitory concentration (IC50) was found to be 20 nM in data set [4], 35 nM in data set [1] (setting [7]), 20 nM in data set [5] and 2500 nM in data set [2].

For the molecule `c1cc(-c2ccc3nc(-c4ccc5nc(-c6ccc7nc[nH]c7c6)[nH]c5c4)[nH]c3c2)ccn1` [Compound 16, 5-(4-Pyridyl)-2-[2'-(benzimidazol-5"-yl)benzimidazol-5'-yl]benzimidazole], the “Cytotoxicity to tumor cells (in words)” value with mammalian tumor cells is on record as “somewhat more active than the 2-pyridyl derivative, 14, as topoisomerase I inhibitors as well as cytotoxic agents”. Further, the “Potency as topoisomerase I inhibitor (in words)” value in data set [3] is given as “somewhat more active than the 2-pyridyl derivative, 14, as topoisomerase I inhibitors”. In addition, the half-inhibitory concentration (IC50) in data set [4] was determined as 10 nM; in data set [1] (setting [7]) it was 35 nM; in data set [5] it was 20 nM; in data set [2], 2500 nM.

Turning to `N#Cc1ccc2nc(-c3ccc4nc[nH]c4c3)[nH]c2c1` [Compound 19, 5-Cyano-2-(benzimidazol-5'-yl)benzimidazole], in data set [1] (setting [7]), the IC50 was over 25000 nM.

As to `Brc1ccc2nc(-c3ccc4nc(-c5ccc6nc[nH]c6c5)[nH]c4c3)[nH]c2c1` [JSKIV-37, 5-Bromo-2-[2'-(benzimidazol-5"-yl)benzimidazol-5'-yl]-benzimidazole], the IC50 in data set [2] came out at 1400 nM.

Regarding `Clc1ccc(-c2ccc3nc(-c4ccc5nc(-c6ccc7nc[nH]c7c6)[nH]c5c4)[nH]c3c2)cc1` [JSKIV-47, 5-(p-Chlorophenyl)-2-[2'-(benzimidazol-5"-yl)benzimidazol-5'-yl]-benzimidazole], the IC50 turned out to be 90 nM in data set [1] (setting [7]) and 200 nM in data set [2] (setting [7]).

`Clc1ccc2nc(-c3ccc4nc(-c5ccc6nc[nH]c6c5)[nH]c4c3)[nH]c2c1` [JSKIV-68, 5-Chloro-2-[2'-(benzimidazol-5"-yl)benzimidazol-5'-yl]-benzimidazole]: the results for the IC50 in data set [1] (setting [7]) and in data set [2] were 1040 nM and 650 nM, respectively.

Take `CC[C@@]1(O)C(=O)OCc2c1cc1n(c2=O)Cc2cc3ccccc3nc2-1` [camptothecin]: the “Relative resistance of camptothecin (ratio of IC50 values of resistant versus drug sensitive cell line)” value in data set [6] is 2,500 fold.

In general, IC50 refers to the concentration that gives 50% inhibition.
